The values that follow come from ChEMBL document CHEMBL6083289, “Deciphering the Therapeutic Potential of Novel Pentyloxyamide-Based Class I, IIb HDAC Inhibitors against Therapy-Resistant Leukemia” (J Med Chem, 2024).

The target of data set [1] is T1, Protein deacetylase HDAC6 (Homo sapiens, UniProt Q9UBN7).
T1 sequence (Q9UBN7 whole entry): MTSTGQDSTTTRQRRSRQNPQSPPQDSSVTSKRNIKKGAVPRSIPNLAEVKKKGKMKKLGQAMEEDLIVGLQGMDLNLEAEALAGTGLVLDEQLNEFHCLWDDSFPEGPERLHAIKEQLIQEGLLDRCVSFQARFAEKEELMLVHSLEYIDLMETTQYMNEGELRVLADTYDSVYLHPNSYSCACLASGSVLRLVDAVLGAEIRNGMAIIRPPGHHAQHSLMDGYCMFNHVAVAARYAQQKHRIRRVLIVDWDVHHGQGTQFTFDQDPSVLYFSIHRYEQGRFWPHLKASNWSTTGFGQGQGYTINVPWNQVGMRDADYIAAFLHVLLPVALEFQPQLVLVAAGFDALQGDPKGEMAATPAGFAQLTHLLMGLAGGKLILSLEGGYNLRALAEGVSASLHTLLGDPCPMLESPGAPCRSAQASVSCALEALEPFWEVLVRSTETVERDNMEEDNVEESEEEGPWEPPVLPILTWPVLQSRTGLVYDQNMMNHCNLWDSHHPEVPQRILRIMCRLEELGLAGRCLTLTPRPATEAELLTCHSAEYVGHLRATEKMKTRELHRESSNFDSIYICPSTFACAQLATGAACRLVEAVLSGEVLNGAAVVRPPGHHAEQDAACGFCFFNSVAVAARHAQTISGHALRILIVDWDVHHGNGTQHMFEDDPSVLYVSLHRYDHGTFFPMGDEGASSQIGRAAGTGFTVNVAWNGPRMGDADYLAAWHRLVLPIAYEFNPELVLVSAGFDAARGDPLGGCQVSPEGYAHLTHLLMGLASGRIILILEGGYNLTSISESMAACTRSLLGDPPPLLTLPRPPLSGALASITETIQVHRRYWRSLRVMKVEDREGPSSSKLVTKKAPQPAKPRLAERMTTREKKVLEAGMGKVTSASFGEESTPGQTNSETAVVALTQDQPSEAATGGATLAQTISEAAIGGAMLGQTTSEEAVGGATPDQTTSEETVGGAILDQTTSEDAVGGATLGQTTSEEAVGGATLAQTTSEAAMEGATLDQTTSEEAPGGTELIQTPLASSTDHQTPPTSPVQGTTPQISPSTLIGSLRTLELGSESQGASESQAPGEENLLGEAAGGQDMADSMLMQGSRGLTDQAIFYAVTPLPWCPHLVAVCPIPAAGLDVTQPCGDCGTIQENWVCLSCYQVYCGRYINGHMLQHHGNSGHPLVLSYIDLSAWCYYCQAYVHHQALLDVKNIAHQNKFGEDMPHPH
The data set is described as follows: Inhibition of human recombinant HDAC6 using RHKKAc as fluorogenic substrate incubated for 90 mins by fluorescence based analysis.

The target in a further data set is Histone deacetylase 4 (Homo sapiens, UniProt P56524).
In the next data set the target is T2, Histone deacetylase 8 (Homo sapiens, UniProt Q9BY41).
T2 sequence (Q9BY41 whole entry): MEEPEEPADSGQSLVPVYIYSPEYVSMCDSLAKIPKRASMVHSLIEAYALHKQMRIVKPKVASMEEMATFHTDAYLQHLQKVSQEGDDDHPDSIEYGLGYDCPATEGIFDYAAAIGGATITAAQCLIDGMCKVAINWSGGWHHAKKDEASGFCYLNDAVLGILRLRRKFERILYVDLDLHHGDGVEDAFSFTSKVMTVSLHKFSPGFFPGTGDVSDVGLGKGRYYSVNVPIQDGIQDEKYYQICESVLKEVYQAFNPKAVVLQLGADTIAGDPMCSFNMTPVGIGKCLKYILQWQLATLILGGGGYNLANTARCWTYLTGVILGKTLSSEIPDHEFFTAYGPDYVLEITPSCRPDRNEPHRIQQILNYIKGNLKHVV

Data set [2] deals with Histone deacetylase 3/Nuclear receptor corepressor 2 (HDAC3/NCoR2) (Homo sapiens, UniProt O15379). Kind of data set: Inhibition of human recombinant Human HDAC3/NCOR2 using RHKKAc as fluorogenic substrate incubated for 90 mins by fluorescence based analysis. It counts as protein-complex assay.
The target of a further data set is T3, Histone deacetylase 11 (Homo sapiens, UniProt Q96DB2).
T3 sequence (Q96DB2 whole entry): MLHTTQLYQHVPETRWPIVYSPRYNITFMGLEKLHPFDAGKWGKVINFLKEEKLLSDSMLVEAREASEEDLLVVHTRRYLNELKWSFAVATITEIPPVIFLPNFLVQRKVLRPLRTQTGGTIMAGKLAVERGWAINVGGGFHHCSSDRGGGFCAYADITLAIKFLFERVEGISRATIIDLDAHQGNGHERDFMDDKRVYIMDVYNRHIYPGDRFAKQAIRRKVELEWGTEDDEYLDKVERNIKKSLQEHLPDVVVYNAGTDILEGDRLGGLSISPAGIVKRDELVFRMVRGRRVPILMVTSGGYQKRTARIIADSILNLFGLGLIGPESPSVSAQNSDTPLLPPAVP

For another data set, the target named is Histone deacetylase 1 (Homo sapiens, UniProt Q13547).
In a further data set the test system is HPBALL. Kind of data set: Antiproliferative activity against human HPBALL cells assessed as inhibition of cell growth incubated for 72 hrs by celltiter-glo assay. The class given is functional, cell-based. (In general: In ATP-based viability assays light output follows the ATP content of the culture.)
A further data set has as its system K562. The data set is described as follows: cells. Particulars: Homo sapiens, K562, 72 h. It counts as functional, cell-based.
A further data set deals with HL-60. The data set is described as follows: cells. Particulars: Homo sapiens, HL-60, 72 h.
The nature of data set [3]: Ratio of drug concentration in human blood to plasma. It counts as ADME, cell-free.
Data set [4] in a line: Metabolic stability in human liver microsomes assessed as half life measured upto 60 mins in presence of NADPH regenerating system LC-MS analysis. (Liver microsomes are a subcellular fraction often used to study metabolism.)
Data set [5] in a line: AUClast in mouse at 50 mg/kg, po by LC/MS/MS analysis. Particulars: in vivo.
The nature of data set [6]: Half life in mouse at 50 mg/kg, po by LC/MS/MS analysis. Particulars: in vivo.
Data set [7] can be described thus: Tmax in Balb/c mouse at 50 mg/kg, po measured upto 6 hrs by LC-MS/MS analysis. The class given is ADME, organism-based. The following applies: in vivo.
Data set [8] can be described thus: Half life in Balb/c mouse at 50 mg/kg, po measured upto 6 hrs by LC-MS/MS analysis. Particulars: in vivo.
The nature of a further data set: in vivo. Particulars: Balb/c, mouse, po, 50 mg/kg.

pIC50: −log10 of the molar value.

Chain of Histone deacetylase 4 (P56524 whole entry): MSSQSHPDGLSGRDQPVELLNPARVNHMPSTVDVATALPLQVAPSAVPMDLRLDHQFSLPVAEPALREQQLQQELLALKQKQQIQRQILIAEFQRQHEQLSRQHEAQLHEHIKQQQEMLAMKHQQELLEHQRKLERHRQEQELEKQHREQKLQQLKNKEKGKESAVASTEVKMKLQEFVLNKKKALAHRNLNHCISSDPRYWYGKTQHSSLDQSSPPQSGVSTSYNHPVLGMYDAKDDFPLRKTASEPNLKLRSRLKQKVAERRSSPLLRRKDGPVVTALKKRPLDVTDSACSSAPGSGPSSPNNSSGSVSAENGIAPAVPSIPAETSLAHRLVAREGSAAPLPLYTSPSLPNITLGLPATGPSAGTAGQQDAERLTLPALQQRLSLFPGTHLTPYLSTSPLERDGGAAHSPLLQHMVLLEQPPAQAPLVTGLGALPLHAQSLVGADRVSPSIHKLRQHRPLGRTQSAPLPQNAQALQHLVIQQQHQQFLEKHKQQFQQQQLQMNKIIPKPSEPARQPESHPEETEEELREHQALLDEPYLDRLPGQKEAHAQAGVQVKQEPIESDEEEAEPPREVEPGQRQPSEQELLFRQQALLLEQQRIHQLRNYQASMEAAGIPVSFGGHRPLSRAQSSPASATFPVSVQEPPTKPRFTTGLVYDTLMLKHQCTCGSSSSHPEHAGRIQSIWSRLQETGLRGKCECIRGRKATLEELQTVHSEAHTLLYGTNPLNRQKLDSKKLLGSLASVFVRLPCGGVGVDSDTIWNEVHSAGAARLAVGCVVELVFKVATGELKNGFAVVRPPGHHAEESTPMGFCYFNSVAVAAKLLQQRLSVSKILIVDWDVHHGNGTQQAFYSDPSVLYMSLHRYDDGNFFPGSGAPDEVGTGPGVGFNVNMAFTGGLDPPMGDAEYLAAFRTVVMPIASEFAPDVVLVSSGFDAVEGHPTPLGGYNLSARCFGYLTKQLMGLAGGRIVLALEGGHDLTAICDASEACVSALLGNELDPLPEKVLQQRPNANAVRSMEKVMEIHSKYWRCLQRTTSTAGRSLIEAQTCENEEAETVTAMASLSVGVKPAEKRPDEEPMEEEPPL
Chain of Histone deacetylase 3/Nuclear receptor corepressor 2 (HDAC3/NCoR2) (O15379 whole entry): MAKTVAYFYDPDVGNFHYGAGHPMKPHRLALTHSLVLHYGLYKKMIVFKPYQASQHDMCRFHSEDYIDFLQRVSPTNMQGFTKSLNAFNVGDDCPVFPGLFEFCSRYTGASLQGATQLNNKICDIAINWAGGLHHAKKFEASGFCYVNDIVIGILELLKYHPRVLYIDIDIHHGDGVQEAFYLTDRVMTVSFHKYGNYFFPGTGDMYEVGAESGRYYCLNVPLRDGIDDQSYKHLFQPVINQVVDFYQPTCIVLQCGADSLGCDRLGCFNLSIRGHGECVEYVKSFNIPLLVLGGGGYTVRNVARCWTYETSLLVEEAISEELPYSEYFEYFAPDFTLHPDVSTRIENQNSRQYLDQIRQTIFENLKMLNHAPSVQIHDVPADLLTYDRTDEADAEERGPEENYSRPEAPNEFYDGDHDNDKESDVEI
Chain of Histone deacetylase 3/Nuclear receptor corepressor 2 (HDAC3/NCoR2) (Q9Y618 whole entry, further chain): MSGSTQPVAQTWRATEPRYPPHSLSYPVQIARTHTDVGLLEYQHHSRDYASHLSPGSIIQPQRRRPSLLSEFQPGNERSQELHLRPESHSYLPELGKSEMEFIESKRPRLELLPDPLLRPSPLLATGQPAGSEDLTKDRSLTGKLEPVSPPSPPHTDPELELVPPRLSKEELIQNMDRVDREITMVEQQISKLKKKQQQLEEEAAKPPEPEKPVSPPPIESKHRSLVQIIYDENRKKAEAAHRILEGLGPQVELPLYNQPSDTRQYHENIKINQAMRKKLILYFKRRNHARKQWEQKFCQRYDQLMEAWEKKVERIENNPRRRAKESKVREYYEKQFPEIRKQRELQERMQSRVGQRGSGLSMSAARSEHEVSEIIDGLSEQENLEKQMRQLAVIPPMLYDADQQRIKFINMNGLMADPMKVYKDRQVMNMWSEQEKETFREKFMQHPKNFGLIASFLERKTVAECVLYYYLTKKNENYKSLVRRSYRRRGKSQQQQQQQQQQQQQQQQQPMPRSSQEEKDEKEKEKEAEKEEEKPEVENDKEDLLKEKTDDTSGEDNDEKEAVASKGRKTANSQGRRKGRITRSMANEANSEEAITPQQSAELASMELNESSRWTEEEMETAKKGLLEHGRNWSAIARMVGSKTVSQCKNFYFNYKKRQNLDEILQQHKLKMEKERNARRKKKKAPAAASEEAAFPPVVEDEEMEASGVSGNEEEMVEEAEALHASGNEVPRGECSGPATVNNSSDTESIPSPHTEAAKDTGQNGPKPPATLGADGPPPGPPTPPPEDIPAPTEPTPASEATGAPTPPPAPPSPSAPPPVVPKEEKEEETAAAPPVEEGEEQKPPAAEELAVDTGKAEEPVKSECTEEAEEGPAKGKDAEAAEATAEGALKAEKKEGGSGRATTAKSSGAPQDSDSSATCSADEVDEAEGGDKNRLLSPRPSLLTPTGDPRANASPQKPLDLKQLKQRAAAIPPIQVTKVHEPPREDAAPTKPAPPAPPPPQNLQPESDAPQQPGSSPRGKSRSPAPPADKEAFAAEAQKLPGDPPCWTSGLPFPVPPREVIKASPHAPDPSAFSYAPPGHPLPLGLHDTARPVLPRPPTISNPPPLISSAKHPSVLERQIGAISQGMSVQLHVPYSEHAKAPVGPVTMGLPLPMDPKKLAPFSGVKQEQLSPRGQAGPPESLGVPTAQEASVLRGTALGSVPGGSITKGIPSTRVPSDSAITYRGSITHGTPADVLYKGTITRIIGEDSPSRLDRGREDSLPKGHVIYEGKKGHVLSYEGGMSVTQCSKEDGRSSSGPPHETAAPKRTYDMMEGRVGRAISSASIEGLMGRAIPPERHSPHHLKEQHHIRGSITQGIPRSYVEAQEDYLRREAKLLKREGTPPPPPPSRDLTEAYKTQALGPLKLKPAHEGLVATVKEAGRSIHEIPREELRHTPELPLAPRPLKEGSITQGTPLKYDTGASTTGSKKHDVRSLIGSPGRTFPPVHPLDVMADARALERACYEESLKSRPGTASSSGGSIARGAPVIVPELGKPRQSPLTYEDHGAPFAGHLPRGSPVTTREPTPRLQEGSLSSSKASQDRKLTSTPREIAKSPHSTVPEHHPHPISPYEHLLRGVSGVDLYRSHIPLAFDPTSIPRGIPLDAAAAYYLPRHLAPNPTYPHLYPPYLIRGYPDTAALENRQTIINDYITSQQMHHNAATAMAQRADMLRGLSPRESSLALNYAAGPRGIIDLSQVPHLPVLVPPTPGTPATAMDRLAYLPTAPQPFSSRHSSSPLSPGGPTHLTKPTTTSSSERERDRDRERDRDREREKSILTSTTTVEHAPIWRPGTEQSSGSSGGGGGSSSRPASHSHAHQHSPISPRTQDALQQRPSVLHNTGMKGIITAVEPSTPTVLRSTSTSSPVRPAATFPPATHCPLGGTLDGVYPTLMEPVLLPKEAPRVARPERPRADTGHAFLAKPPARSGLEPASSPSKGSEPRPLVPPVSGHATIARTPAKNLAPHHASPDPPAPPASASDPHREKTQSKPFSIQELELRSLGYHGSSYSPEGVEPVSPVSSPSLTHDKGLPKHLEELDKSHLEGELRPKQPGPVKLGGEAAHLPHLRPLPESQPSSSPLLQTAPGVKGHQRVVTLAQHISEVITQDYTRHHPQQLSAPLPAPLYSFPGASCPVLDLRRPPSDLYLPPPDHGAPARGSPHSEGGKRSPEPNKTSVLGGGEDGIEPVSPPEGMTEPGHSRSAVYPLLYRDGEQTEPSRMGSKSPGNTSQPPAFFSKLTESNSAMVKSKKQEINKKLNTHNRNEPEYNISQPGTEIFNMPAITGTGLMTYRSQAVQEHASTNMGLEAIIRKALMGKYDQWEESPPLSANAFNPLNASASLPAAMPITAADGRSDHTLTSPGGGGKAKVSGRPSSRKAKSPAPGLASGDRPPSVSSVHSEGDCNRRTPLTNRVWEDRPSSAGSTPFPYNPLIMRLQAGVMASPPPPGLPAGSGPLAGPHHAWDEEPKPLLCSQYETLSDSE
Chain of Histone deacetylase 1 (Q13547 whole entry): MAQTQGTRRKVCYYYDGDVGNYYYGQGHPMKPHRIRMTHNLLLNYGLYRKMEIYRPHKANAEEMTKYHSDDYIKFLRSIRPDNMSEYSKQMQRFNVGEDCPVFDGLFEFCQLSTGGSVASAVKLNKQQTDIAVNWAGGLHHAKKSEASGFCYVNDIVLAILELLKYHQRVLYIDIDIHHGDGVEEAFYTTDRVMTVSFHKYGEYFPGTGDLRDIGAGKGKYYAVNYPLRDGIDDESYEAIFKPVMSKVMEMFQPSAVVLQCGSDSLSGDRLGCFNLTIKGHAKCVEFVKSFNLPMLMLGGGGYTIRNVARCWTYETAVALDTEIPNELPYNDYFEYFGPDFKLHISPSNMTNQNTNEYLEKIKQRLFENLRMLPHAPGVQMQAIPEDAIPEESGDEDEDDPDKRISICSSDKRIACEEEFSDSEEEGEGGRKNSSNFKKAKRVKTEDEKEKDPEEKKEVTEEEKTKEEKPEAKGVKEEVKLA
Description for Histone deacetylase 4: Inhibition of human recombinant HDAC4 using Boc-Lys(trifluoroacetyl)-AMC) as fluorogenic substrate incubated for 90 mins by fluorescence based analysis
Description for Histone deacetylase 8: Inhibition of human recombinant HDAC8 using RHKAcKAc as fluorogenic substrate incubated for 90 mins by fluorescence based analysis

Take `O=C(CCCCCONC(=O)c1nc(-c2ccc(C(F)(F)F)cc2)cs1)NO`: the pIC50 in data set [1] is 6.97; against Histone deacetylase 4, < 4.00; against Histone deacetylase 8, 5.31.
With `COc1ccccc1-c1csc(C(=O)NOCCCCCC(=O)NO)n1`, the figures for the pIC50 (in data set [1]; against Histone deacetylase 4; against Histone deacetylase 8) were 7.59, < 4.00 and 5.67, respectively.
Turning to `O=C(CCCCCONC(=O)c1nc(-c2ccc(F)cc2)cs1)NO`, the figures for the pIC50 (in [1]; against Histone deacetylase 4; on Histone deacetylase 8) were 7.35, < 4.00 and 5.20, respectively.
For `O=C(CCCCCONC(=O)c1nc(-c2ccc(N3CCCC3)cc2)cs1)NO`, the pIC50 in [1] is 7.19; in data set [2] it was 7.32; on Histone deacetylase 11, 4.44; against Histone deacetylase 4 it was < 4.00; against Histone deacetylase 8, 5.32; against Histone deacetylase 1 it was 7.92.
Consider `O=C(CCCCCONC(=O)c1nc(-c2ccccc2F)cs1)NO`, for which the pIC50 is 7.29 in data set [1], < 4.00 against Histone deacetylase 4 and 5.89 on Histone deacetylase 8.
Taken in the same sequence, the figures for `O=C(CCCCCONC(=O)c1nc(-c2cc3ccccc3o2)cs1)NO` were 7.52, < 4.00 and 5.43.
Taken in the same sequence, the figures for `O=C(CCCCCONC(=O)c1nc(-c2cccc(F)c2)cs1)NO` were 7.33, < 4.00 and 5.63.
On to `COc1cccc(-c2csc(C(=O)NOCCCCCC(=O)NO)n2)c1`, for which the pIC50 is 7.59 in data set [1], < 4.00 against Histone deacetylase 4 and 5.28 at Histone deacetylase 8.
Regarding `Cc1ccc(-c2csc(C(=O)NOCCCCCC(=O)NO)n2)cc1`, the pIC50 in data set [1] was 7.19; on Histone deacetylase 4, < 4.00; against Histone deacetylase 8, 5.15.
Taken in the same sequence, the figures for `O=C(CCCCCONC(=O)c1nc(-c2ccsc2)cs1)NO` were 7.31, < 4.00 and 5.27.
Regarding `COc1ccc(-c2csc(C(=O)NOCCCCCC(=O)NO)n2)cc1`, the pIC50 in [1] was 7.42; in [2], 7.89; against Histone deacetylase 11, 4.59; on Histone deacetylase 4, < 4.00; at Histone deacetylase 8, 5.24; against Histone deacetylase 1, 7.40.
As to `O=C(CCCCCONC(=O)c1nc(-c2ccccc2)cs1)NO`, the pIC50 was 7.12 in data set [1], < 4.00 against Histone deacetylase 4 and 5.40 against Histone deacetylase 8.
In the case of `O=C(CCCCCONC(=O)c1nc(-c2cccs2)cs1)NO`, the pIC50 in [1] is 7.09; at Histone deacetylase 4, < 4.00; against Histone deacetylase 8 it was 5.60.
Turning to `O=C(/C=C/c1cccc(S(=O)(=O)Nc2ccccc2)c1)NO` [BELINOSTAT], the pIC50 was 6.57 in the data set on HPBALL, 6.66 with K562 and 6.80 with HL-60.
Take `COc1ccccc1OCCNCC(O)COc1cccc2[nH]c3ccccc3c12` (configuration not stated) [CARVEDILOL]: the blood plasma ratio in data set [3] was 0.76.
Take `O=C(CCCCCCNC(=O)c1cnc(N(c2ccccc2)c2ccccc2)nc1)NO` [RICOLINOSTAT]: the results for the pIC50 with HPBALL, with K562 and in the data set on HL-60 were 5.59, 5.53 and 5.66, respectively.
With `CC(=O)Nc1ccc(C(=O)Nc2ccccc2N)cc1` [TACEDINALINE], the pIC50 in the data set on HPBALL is 5.33; in the data set on K562, 5.27; in the data set on HL-60, 5.80.
Take `O=C(CCCCCCC(=O)Nc1ccccc1)NO` [VORINOSTAT]: the pIC50 in the data set with HPBALL is 6.08. For the same molecule, the half-life at 1 h in [4] turned out to be 35.9 min. For the same molecule, the AUC(0-t) in data set [5] came out at 619 ng·h/mL. Besides, the half-life in data set [6] was 45 min. Also, the Tmax in data set [7] turned out to be 4.8 min. In addition, in data set [8], the half-life at 6 h is 48 min. For the same molecule, the AUC(0-t) at 6 h in “in vivo” was 347 ng·h/mL.

One may read the pIC50 as the negative decadic logarithm of the IC50, by convention in mol/L. As a reminder, the half-life is the time needed for the level to fall by half in the phase considered. As a reminder, the AUC(0-t) is the area under the concentration-time curve up to a stated or last time point. Broadly, the Tmax is the time at which the peak concentration occurs.
